What follows are compounds tested against T1, purified human 15-lipoxygenase (Homo sapiens, UniProt P16050) (assay: 15-lipoxygenase inhibition assay (arachidonic acid oxidation, HPLC readout)). Conditions: arachidonic acid substrate, room temperature.
T1 sequence (P16050 1-662): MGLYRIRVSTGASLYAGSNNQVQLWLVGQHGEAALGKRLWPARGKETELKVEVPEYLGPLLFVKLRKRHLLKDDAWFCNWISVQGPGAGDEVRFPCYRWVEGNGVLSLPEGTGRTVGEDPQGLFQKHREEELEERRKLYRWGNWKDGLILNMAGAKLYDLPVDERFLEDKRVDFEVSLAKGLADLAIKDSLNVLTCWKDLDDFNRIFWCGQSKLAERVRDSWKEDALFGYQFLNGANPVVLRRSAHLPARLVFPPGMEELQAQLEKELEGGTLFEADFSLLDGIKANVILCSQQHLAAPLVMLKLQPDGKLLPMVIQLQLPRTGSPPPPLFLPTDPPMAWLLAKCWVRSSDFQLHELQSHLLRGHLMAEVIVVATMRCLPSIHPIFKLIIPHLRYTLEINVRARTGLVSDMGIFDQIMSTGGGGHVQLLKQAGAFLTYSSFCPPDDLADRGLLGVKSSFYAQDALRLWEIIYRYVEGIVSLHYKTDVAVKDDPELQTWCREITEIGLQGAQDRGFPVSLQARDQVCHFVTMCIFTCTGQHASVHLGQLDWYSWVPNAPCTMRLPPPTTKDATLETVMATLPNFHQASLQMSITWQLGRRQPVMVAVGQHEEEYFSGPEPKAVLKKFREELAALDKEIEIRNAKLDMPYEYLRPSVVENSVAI
Format: biochemical
Procedure: The assay employed takes advantage of the ability of lipoxygenases to oxidize polyunsaturated fatty acids, containing a 1,4-cis-pentadiene configuration, to their corresponding hydroperoxy or hydroxyl derivatives. In this particular assay, the lipoxygenase was a purified human 15-lipoxygenase and the fatty acid was arachidonic acid. The assay is performed at room temperature (20-22° C.) and the following are added to each well in a 96-well microtiter plate:
a) 35 μL phosphate buffered saline […] (pH 7.4); b) inhibitor (i.e. compound) or vehicle (0.5 μl DMSO); c) 10 μL of a 10× concentrated solution of 15-lipoxygenase in PBS. […] The plate is then incubated for 10 minutes at room temperature; e) the enzymatic reaction is terminated by the addition of 100 μl MeOH; and f) the amount of 15-hydroperoxy-eicosatetraenoic acid or 15-hydroxy-eicosatetraenoic acid is measured by reverse phase HPLC.
With O=C(Nc1ccc(F)cc1F)c1cc(Cl)[nH]n1 [Example 5, 5-Chloro-N-(2,4-difluorophenyl)pyrazole-3-carboxamide] the IC50 was 265 nM.
With O=C(Nc1ccc(F)cc1)c1cc(Cl)[nH]n1 [Example 7, 5-Chloro-N-(4-fluorophenyl)pyrazole-3-carboxamide] the IC50 was 182 nM.
O=C(Nc1ccc(Cl)cc1)c1cc(Cl)[nH]n1 [Example 8, 5-Chloro-N-(4-chlorophenyl)pyrazole-3-carboxamide] was tested, and the IC50 was 78 nM.
O=C(Nc1ccccc1OC(F)F)c1cc(Cl)[nH]n1 [Example 19, 5-Chloro-N-(2-difluoro-methoxyphenyl)pyrazole-3-carboxamide] gave an IC50 of 69 nM.

Reference: US20090143455A1, “Pyrazoles Useful in the Treatment of Inflammation” (priority 2005, published 2009)
